Laboratory results reported in patent US6750224B1, “Antibacterial optically pure benzoquinolizine carboxylic acids, processes, compositions and methods of treatment” (priority 1999, dated 2004).
≈ marks a conversion by molar mass, not a printed value. Read-outs that look alike come from different tables or passages of the source.

Assays:
in vivo = experiment: in vivo; design: species or system Swiss mice; conditions: Swiss, mouse, po, 30 mg/kg
Description: The blood levels of RS-(±)-Nadifloxacin and S-(−)-Nadifloxacin administered orally to Swiss mice at a dose of 30mg/kg are shown in Table 3 with respect to the AUC (μg/ml.hr), monitored from 15 minutes to 4 hours.

MRSE STE-22 = experiment: In-vitro antimicrobial activity test (MIC, NCCLS); type: cell-based, Staphylococcus epidermidis
Text: (§1) The test method was in accordance with the standard NCCLS protocol.

MRSA STA-4 = experiment: In-vitro antimicrobial activity test (MIC, NCCLS); type: cell-based, Staphylococcus aureus
Text: as §1

[1] = tested on: Mupirocin-resistant Staph STA-34; experiment: In-vitro antimicrobial activity test (MIC, NCCLS); type: cell-based, Staphylococcus aureus
Text: as §1

[2] = Acute intravenous toxicity in mice; conditions: mouse, in vivo, iv
Haemophilus influenzae = experiment: In-vitro antimicrobial activity test (MIC, NCCLS); type: cell-based
Text: as §1

[3] = tested on: Escherichia coli ATCC 25922; experiment: In-vitro antimicrobial activity test (MIC, NCCLS); type: cell-based
Text: as §1

[4] = tested on: Staphylococcus aureus ATCC 25923; experiment: In-vitro antimicrobial activity test (MIC, NCCLS); type: cell-based
Text: as §1

Serratia marcescens = experiment: In-vitro antimicrobial activity test (MIC, NCCLS); type: cell-based
Text: as §1

[5] = tested on: Enterococcus faecalis ATCC 29212; experiment: In-vitro antimicrobial activity test (MIC, NCCLS); type: cell-based
Text: as §1

Mycobacterium avium = experiment: In-vitro antimicrobial activity test (MIC, NCCLS); type: cell-based
Text: as §1

Streptococcus pyogenes = experiment: In-vitro antimicrobial activity test (MIC, NCCLS); type: cell-based
Text: as §1

[6] = tested on: Chryseobacterium meningosepticum; experiment: In-vitro antimicrobial activity test (MIC, NCCLS); type: cell-based
Text: as §1

[7] = tested on: Viridans group Streptococci; experiment: In-vitro antimicrobial activity test (MIC, NCCLS); type: cell-based
Text: as §1

Pseudomonas aeruginosa = experiment: In-vitro antimicrobial activity test (MIC, NCCLS); type: cell-based
Text: as §1

Bacteroides fragilis = experiment: In-vitro antimicrobial activity test (MIC, NCCLS); type: cell-based
Text: as §1

[8] = tested on: Mycobacterium tuberculosis ATCC 27294; experiment: In-vitro antimicrobial activity test (MIC, NCCLS); type: cell-based
Text: as §1

Corynebacterium jeikeium = experiment: In-vitro antimicrobial activity test (MIC, NCCLS); type: cell-based
Text: as §1

[9] = tested on: Streptococcus pneumoniae ATCC 6303; experiment: In-vitro antimicrobial activity test (MIC, NCCLS); type: cell-based
Text: as §1

Propioni bacterium acnes = experiment: In-vitro antimicrobial activity test (MIC, NCCLS); type: cell-based
Text: as §1

[10] = tested on: Mycobacterium intracellulare; experiment: In-vitro antimicrobial activity test (MIC, NCCLS); type: cell-based
Text: as §1

Enterococcus faecium = experiment: In-vitro antimicrobial activity test (MIC, NCCLS); type: cell-based
Text: as §1

E. faecalis = experiment: Effect of pH on potency of fluoroquinolones (MIC at pH 5.5 and 7.0); type: cell-based; conditions: MIC pH 7 vs pH 5.5
Text: (§2) The test method was in accordance with the standard NCCLS protocol employing test media adjusted at pH 5.5 and 7.0.

P. rettgeri N 1764 = experiment: as above; type: cell-based; conditions: MIC pH 7 vs pH 5.5
Text: as §2

S. aureus 25923 = experiment: as above; type: cell-based; conditions: MIC pH 7 vs pH 5.5
Text: as §2

Serratia marcescens 2702 = experiment: as above; type: cell-based; conditions: MIC pH 7 vs pH 5.5
Text: as §2

P. vulgaris 66 = experiment: as above; type: cell-based; conditions: MIC pH 7 vs pH 5.5
Text: as §2

S. aureus 1199-B = experiment: as above; type: cell-based; conditions: MIC pH 7 vs pH 5.5
Text: as §2

Ps. Aeruginosa = experiment: as above; type: cell-based; conditions: MIC pH 7 vs pH 5.5
Text: as §2

Klebsiella 24037 = experiment: as above; type: cell-based; conditions: MIC pH 7 vs pH 5.5
Text: as §2

E. coli 2015 = experiment: as above; type: cell-based; conditions: MIC pH 7 vs pH 5.5
Text: as §2

Acinetobacter 3109 = experiment: as above; type: cell-based; conditions: MIC pH 7 vs pH 5.5
Text: as §2

E. coli 25922 = experiment: as above; type: cell-based; conditions: MIC pH 7 vs pH 5.5
Text: as §2

P. mirabilis 37 = experiment: as above; type: cell-based; conditions: MIC pH 7 vs pH 5.5
Text: as §2

[11] = tested on: S.aureus strain bearing Nor A efflux pump; type: cell-based; conditions: Nor A efflux pump strain vs strain devoid of efflux pump
Description: Using this set of MIC values, % loss in potency due to efflux was calculated for each of the fluoroquinolone in Table 5

[12] = Equilibrium moisture content determination at several relative humidities; type: physicochemical; conditions: Karl Fischer
Text: Silica (anhydrous) and three saturated solutions of electrolytes prepared by dissolving the respective salts in water were each introduced into different desiccators to control the inner relative humidity to a specific value as represented in the following Table 7. Then, the equilibrium moisture contents of S-(−)-9-fluoro-6,7-dihydro-8-(4-hydroxypiperidin-1-yl)-5-methyl-1-oxo-1H,5H-benzo[i,j]quinolizine-2-carboxylic acid anhydrate and S-(−)-9-fluoro-6,7-dihydro-8-(4-hydroxypiperidin-1-yl)-5-methyl-1-oxo-1H,5H-benzo[i,j]quinolizine-2-carboxylic acid 0.2 hydrate prepared in Examples 1 and 2 respectively were determined at several relative humidities.
Specifically, 1 g of the sample was spread on a pre-weighed petridish and the total weight was accurately measured, then both the samples were placed in each desiccator of Table 8 The dessicators were allowed to stand at normal temperature for at least 3 days and the weight was measured agingly over this period. The weight changes were tabulated. At the end of 3 days all samples were taken to be weighed. The moisture content of each sample was determined by Karl Fischer analysis. Equilibrium moisture content at each relative humidity is represented in FIG. 1 (anhydrate) and FIG. 2 (0.2 hydrate).

[13] = Chemical stability under heating (HPLC); type: physicochemical
Description: The anhydride and hydrates were each introduced into a glass vial and maintained at 70° C. Thus the thermal decomposition with elapsed time was analysed by HPLC and the results thus obtained are described in Table 8

In the case of `CC1CCc2c(N3CCC(O)CC3)c(F)cc3c(=O)c(C(=O)O)cn1c23` (racemic) [RS-(±)-Nadifloxacin, (±)-9-fluoro-8-(4-hydroxypiperidin-1-yl)-5-methyl-6,7-dihydro-1-oxo-1H-5H-benzo[i,j]quinolizine-2-carboxylic acid], the AUC (in vivo) is reported as 16900 ng·h/mL, the MIC (MRSE STE-22) is reported as 1.56 µg/mL (≈ 4.33 µM) and the MIC (MRSA STA-4) is reported as 0.8 µg/mL (≈ 2.22 µM). It also gave an MIC [1] of 1.56 µg/mL (≈ 4.33 µM), an LD50 [2] of 311 mg/kg and an MIC (Haemophilus influenzae) of 0.05 µg/mL (≈ 0.139 µM). For the same compound, the MIC [3] was 0.8 µg/mL (≈ 2.22 µM), the MIC [4] was 0.05 µg/mL (≈ 0.139 µM) and the MIC (Serratia marcescens) was 1.56 µg/mL (≈ 4.33 µM). For the same compound, the MIC [5] was 0.4 µg/mL (≈ 1.11 µM), the MIC (Mycobacterium avium) was 6.25 µg/mL (≈ 17.3 µM) and the MIC (Streptococcus pyogenes) was 0.4 µg/mL (≈ 1.11 µM). For the same compound, the MIC [6] was 1.56 µg/mL (≈ 4.33 µM), the MIC [7] was 0.4 µg/mL (≈ 1.11 µM) and the MIC (Pseudomonas aeruginosa) was 3.12 µg/mL (≈ 8.66 µM). For the same compound, the MIC (Bacteroides fragilis) was 3.12 µg/mL (≈ 8.66 µM), the MIC [8] was 1.56 µg/mL (≈ 4.33 µM) and the MIC (Corynebacterium jeikeium) was 0.2 µg/mL (≈ 0.555 µM). For the same compound, the MIC [9] was 0.4 µg/mL (≈ 1.11 µM), the MIC (Propioni bacterium acnes) was 0.2 µg/mL (≈ 0.555 µM) and the MIC [10] was 3.12 µg/mL (≈ 8.66 µM). For the same compound, the MIC (Enterococcus faecium) was 0.8 µg/mL (≈ 2.22 µM).

In the case of `O=C(O)c1cn(C2CC2)c2cc(N3CCNCC3)c(F)cc2c1=O` [Ciprofloxacin], the “% change in potency at pH 5.5, loss (−)/gain (+)” value (“% change … loss (−)/gain (+)” for short) (E. faecalis) is reported as −87.5%, the “% change … loss (−)/gain (+)” value (P. rettgeri N 1764) is reported as −94% and the “% change … loss (−)/gain (+)” value (S. aureus 25923) is reported as −75%. For the same compound, the “% change … loss (−)/gain (+)” value (Serratia marcescens 2702) was −99%, the “% change … loss (−)/gain (+)” value (P. vulgaris 66) was −96% and the “% change … loss (−)/gain (+)” value (S. aureus 1199-B) was −75%. The “% change … loss (−)/gain (+)” value (Ps. Aeruginosa) was −87%, the “% change … loss (−)/gain (+)” value (Klebsiella 24037) was −97% and the “% change … loss (−)/gain (+)” value (E. coli 2015) was −94%. The “% change … loss (−)/gain (+)” value (Acinetobacter 3109) was −97%, the “% change … loss (−)/gain (+)” value (E. coli 25922) was −97.5% and the “% change … loss (−)/gain (+)” value (P. mirabilis 37) was −96%.

For `NC1CCN(c2c(F)cc3c(=O)c(C(=O)O)cn(C4CC4)c3c2Cl)C1` (centres unmarked) [Clinafloxacin], the “% loss in potency for S. aureus bearing Efflux pump” value [11] was 87.5%.

In the case of `C[C@H]1CCc2c(N3CCC(O)CC3)c(F)cc3c(=O)c(C(=O)O)cn1c23` [Example 1, S-(−)-9-fluoro-6,7-dihydro-8-(4-hydroxypiperidin-1-yl)-5-methyl-1-oxo-1H,5H-benzo[i,j]quinolizine-2-carboxylic acid anhydrate], the equilibrium moisture content ([12]; relative humidity 20% to 58%) is reported as “around 0.1%”, the equilibrium moisture content ([12]; relative humidity 75% to 95%) is reported as “around 1%” and the “Thermal stability with elapsed time at 70° C.” value (“Thermal stability” below) ([13]; 1 week, HPLC) is reported as 98.7%. For the same compound, the “Thermal stability” value ([13]; 2 week, HPLC) was 98.6% and the “Thermal stability” value ([13]; Initial, HPLC) was 98.9%.

In the case of `C[C@H]1CCc2c(N3CCC(O)CC3)c(F)cc3c(=O)c(C(=O)O)cn1c23.O` [Example 2, S-(−)-9-fluoro-6,7-dihydro-8-(4-hydroxypiperidin-1-yl)-5-methyl-1-oxo-1H,5H-benzo[i,j]quinolizine-2-carboxylic acid 0.2 hydrate], the equilibrium moisture content ([12]; relative humidity 20% to 95%) is reported as “around 1%”, the “Thermal stability” value [13] is reported as 98.7% and the “chemical stability at 70° C., in words” value [13] is reported as “same degree of chemical stability as the anhydrate”.

In the case of `C[C@H]1CCc2c(N3CCC(O)CC3)c(F)cc3c(=O)c(C(=O)O)cn1c23.C[C@H]1CCc2c(N3CCC(O)CC3)c(F)cc3c(=O)c(C(=O)O)cn1c23.O` [Example 3, S-(−)-9-fluoro-6,7-dihydro-8-(4-hydroxypiperidin-1-yl)-5-methyl-1-oxo-1H,5H-benzo[i,j]quinolizine-2-carboxylic acid 0.5 hydrate], the “Thermal stability” value [13] is reported as 98.1% and the “chemical stability at 70° C., in words” value [13] is reported as “decompose with time”.

With `C[C@H]1CCc2c(N3CCC(O)CC3)c(F)cc3c(=O)c(C(=O)O)cn1c23.O` [Example 4, S-(−)-9-fluoro-6,7-dihydro-8-(4-hydroxypiperidin-1-yl)-5-methyl-1-oxo-1H,5H-benzo[i,j]quinolizine-2-carboxylic acid 0.75 hydrate] the “Thermal stability” value [13] was 98.3% and the “chemical stability at 70° C., in words” value [13] was “decompose with time”.
